In general, IC50 refers to the concentration at which inhibition is half-maximal.

The record followed here is patent US9034871B2, “Compounds for Alzheimer's disease” (priority 2004, dated 2015).

This test relates to Aβ42. The test can be described thus: Detection of secreted Aβ42 with Biosource ELISA kit in H4 cells expressing APP695. It is filed as cell-based. The conditions noted are these: Ab42 lowering, cell based assay; read-out: Ab42 IC50. The protocol: The present invention provides compositions and methods for lowering Aβ42 levels. To test whether compounds and compositions are capable of modulating Aβ levels, a sandwich enzyme-linked immunosorbent assay (ELISA) is employed to measure secreted Aβ (Aβ42 and/or Aβ40) levels. In this example, H4 cells expressing wide type APP695 are seeded at 200,000 cells/per well in 6 well plates, and incubated at 37 degree C. with 5% CO2 overnight. Cells are treated with 1.5 ml medium containing vehicle (DMSO) or a test compound at 1.25 μM, 2.5 μM, 5.0 μM and 10.0 μM (as well as other concentration if desirable) concentration for 24 hours or 48 hours. The supernatant from treated cells is collected into eppendorf tubes and frozen at −80 degree C. for future analysis.
The amyloid peptide standard is reconstituted and frozen samples are thawed. The samples and standards are diluted with appropriate diluents and the plate is washed 4 times with Working Wash Buffer and patted dry on a paper towel. 100 μL per well of peptide standards, controls, and dilutions of samples to be analyzed is added. The plate is incubated for 2 hours while shaking on an orbital plate shaker at RT. The plate is then washed 4 times with Working Wash Buffer and patted dry on a paper towel. Detection Antibody Solution is poured into a reservoir and 100 μL /well of Detection Antibody Solution is immediately added to the plate. The plate is incubated at RT for 2 hours while shaking and then washed four times with Working Wash Buffer and patted dry on a paper towel. Secondary Antibody Solution is then poured into a reservoir and 100 μL /well of Secondary Antibody Solution is immediately added to the plate. The plate is incubated at RT for 2 hours with shaking, washed 5 times with Working Wash Buffer, and patted dry on a paper towel.
100 μL of stabilized chromogen is added to each well and the liquid in the wells begins to turn blue. The plate is incubated for 30 minutes at room temperature and in the dark. 100 μL of stop solution is added to each well and the plate is tapped gently to mix resulting in a change of solution color from blue to yellow. The absorbance of each well is read at 450 nm having blanked the plate reader against a chromogen blank composed of 100 μL each of stabilized chromogen and stop solution. The plate is read within 2 hours of adding the stop solution. The absorbance of the standards is plotted against the standard concentration and the concentrations of unknown samples and controls are calculated.
These compounds were synthesized via the indicated synthetic route. Ab42 IC50 (uM) refers to IC50 value for Ab42 lowering in e.g., the assay described in Example 6.
For orientation: ELISA stands for enzyme-linked immunosorbent assay.

Take `O=C(O)CCCc1ccc(-n2c(-c3ccc4c(c3)OCO4)cc3c4ccccc4ccc32)cc1`: the IC50 was 8.9 µM.

As to `Cc1onc(-c2ccccc2)c1-c1cc2c3ccccc3ccc2n1-c1cccc(-c2nn[nH]n2)c1`, the IC50 is 31 µM.

On to `c1ccc(-c2cc3c(n2-c2cccc(-c4nn[nH]n4)c2)CCCC3)cc1`, for which the IC50 stood at 100 µM.

For the compound `CC1CCc2c(cc(-c3ccccc3)n2-c2nc(C(=O)O)cs2)C1` (stereo not drawn) [2-(5-methyl-2-phenyl-4,5,6,7-tetrahydroindol-1-yl) thiazole-4-carboxylic acid], the IC50 is > 100 µM.

Take `COc1ccc(-c2cc3c(n2-c2nc(C(=O)O)cs2)CCC(C(F)(F)F)C3)c(OC)c1` (stereo not drawn) [2-[2-(2,4-dimethoxyphenyl)-5-trifluoromethyl-4,5,6,7-tetrahydroindol-1-yl]-thiazole-4-carboxylic acid]: the IC50 is > 100 µM.

In the case of `COc1ccc(-c2cc3c(n2-c2nc(C(=O)O)cs2)CCC(C(F)(F)F)C3)cc1OC` (stereo not drawn) [2-[2-(3,4-dimethoxyphenyl)-5-trifluoromethyl-4,5,6,7-tetrahydroindol-1-yl]-thiazole-4-carboxylic acid], the half-maximal inhibitory concentration (IC50) was > 100 µM.

Regarding `c1cc(-c2nn[nH]n2)cc(-n2c(-c3ccc4c(c3)OCO4)cc3c4ccccc4ccc32)c1` [2-benzo[1,3]dioxol-5-yl-3-[3-(2H-tetrazol-5-yl)-phenyl]-3H-benzo[e]indole], the IC50 is 56 µM.

As for `c1cc(-c2nn[nH]n2)cc(-n2c(-c3cc4ccccc4o3)cc3c2CCc2ccccc2-3)c1` [2-benzofuran-2-yl-3-[3-(2H-tetrazol-5-yl)-phenyl]-4,5-dihydro-3H-benzo[e]indole], the IC50 stood at 9.3 µM.

As for `c1ccc(-c2cc3c4ccccc4ccc3n2-c2cccc(-c3nn[nH]n3)c2)nc1` [2-pyridin-2-yl-3-[3-(2H-tetrazol-5-yl)-phenyl]-3H-benzo[e]indole], the IC50 is 32 µM.

Take `c1ccc(-c2cc3c(n2-c2cccc(-c4nn[nH]n4)c2)CCc2ccccc2-3)nc1` [2-pyridin-2-yl-3-[3-(2H-tetrazol-5-yl)-phenyl]-4,5-dihydro-3H-benzo[e]indole]: the half-inhibitory concentration (IC50) worked out at 43 µM.

`c1cncc(-c2cc3c4ccccc4ccc3n2-c2cccc(-c3nn[nH]n3)c2)c1` [2-pyridin-3-yl-3-[3-(2H-tetrazol-5-yl)-phenyl]-3H-benzo[e]indole]: the IC50 came to 46 µM.

`c1cncc(-c2cc3c(n2-c2cccc(-c4nn[nH]n4)c2)CCc2ccccc2-3)c1` [2-pyridin-3-yl-3-[3-(2H-tetrazol-5-yl)-phenyl]-4,5-dihydro-3H-benzo[e]indole]: the IC50 was > 100 µM.

On to `c1cc(-c2nn[nH]n2)cc(-n2c(-c3ccncc3)cc3c2CCc2ccccc2-3)c1` [2-pyridin-4-yl-3-[3-(2H-tetrazol-5-yl)-phenyl]-4,5-dihydro-3H-benzo[e]indole], for which the IC50 amounted to 73 µM.

With `O=C(O)c1cccc(-n2c(-c3ccc4c(c3)OCO4)cc3c2CCc2ccccc2-3)c1` [3-(2-benzo[1,3]dioxol-5-yl-4,5-dihydrobenzo[e]indol-3-yl) benzoic acid], the concentration for half-maximal inhibition (IC50) came out at 18 µM.

On to `O=C(O)c1cccc(-n2c(-c3ccc4c(c3)OCO4)cc3c4ccccc4ccc32)c1` [3-(2-benzo[1,3]dioxol-5-yl-benzo[e]indol-3-yl) benzoic acid], for which the concentration for half-maximal inhibition (IC50) amounted to 20 µM.

With `O=C(O)c1cccc(-n2c(-c3cc4ccccc4o3)cc3c2CCc2ccccc2-3)c1` [3-(2-benzofuran-2-yl-4,5-dihydrobenzo[e]indol-3-yl) benzoic acid], the IC50 turned out to be 0.56 µM.

On to `O=C(O)c1cccc(-n2c(-c3cc4ccccc4o3)cc3c4ccccc4ccc32)c1` [3-(2-benzofuran-2-yl-benzo[e]indol-3-yl) benzoic acid], for which the 50% inhibitory concentration (IC50) worked out at 1.17 µM.

Consider `O=C(O)c1cccc(-n2c(-c3ccccc3)cc3c2CC(c2ccccn2)CC3)c1` (stereo not drawn) [3-(2-phenyl-6-pyridin-2-yl-4,5,6,7-tetrahydroindol-1-yl) benzoic acid], for which the IC50 stood at 70.8 µM.

In the case of `O=C(O)c1cccc(-n2c(-c3ccccn3)cc3c2CCc2ccccc2-3)c1` [3-(2-pyridin-2-yl-4,5-dihydrobenzo[e]indol-3-yl) benzoic acid], the IC50 was 70 µM.

As for `O=C(O)c1cccc(-n2c(-c3ccccn3)cc3c4ccccc4ccc32)c1` [3-(2-pyridin-2-yl-benzo[e]indol-3-yl) benzoic acid], the IC50 was determined as 79 µM.

Regarding `O=C(O)c1cccc(-n2c(-c3cccnc3)cc3c2CCc2ccccc2-3)c1` [3-(2-pyridin-3-yl-4,5-dihydrobenzo[e]indol-3-yl) benzoic acid], the half-maximal inhibitory concentration (IC50) is > 100 µM.

As for `O=C(O)c1cccc(-n2c(-c3cccnc3)cc3c4ccccc4ccc32)c1` [3-(2-pyridin-3-yl-benzo[e]indol-3-yl) benzoic acid], the IC50 is > 100 µM.

Regarding `O=C(O)c1cccc(-n2c(-c3ccncc3)cc3c2CCc2ccccc2-3)c1` [3-(2-pyridin-4-yl-4,5-dihydrobenzo[e]indol-3-yl) benzoic acid], the IC50 was found to be 65 µM.

For `O=C(O)c1cccc(-n2c(-c3ccncc3)cc3c4ccccc4ccc32)c1` [3-(2-pyridin-4-yl-benzo[e]indol-3-yl) benzoic acid], the 50% inhibitory concentration (IC50) turned out to be 81 µM.

With `O=C(O)c1cccc(-n2c(-c3ccsc3)cc3c4ccccc4ccc32)c1` [3-(2-thiophen-3-yl-benzo[e]indol-3-yl) benzoic acid], the IC50 came out at 13.2 µM.

For `O=C(O)c1cccc(-n2nc(-c3ccccc3)cc2-c2ccccc2)c1` [3-(3,5-diphenyl-pyrazol-1-yl)-benzoic acid], the IC50 was > 100 µM.

Take `O=C(O)c1cccc(-c2cc3c4ccccc4ccc3n2-c2ccoc2)c1` [3-(3-furan-3-yl-3H-benzo[e]indol-2-yl) benzoic acid]: the IC50 is > 100 µM.

Turning to `O=C(O)c1cccc(-c2cc3c(n2-c2cccnc2)CCc2ccccc2-3)c1` [3-(3-pyridin-3-yl-4 5-dihydro-3H-benzo[e]indol-2-yl) benzoic acid], the IC50 is > 100 µM.

In the case of `Cc1onc(-c2ccccc2)c1-c1cc2c3ccccc3ccc2n1-c1cccc(C(=O)O)c1` [3-[2-(5-methyl-3-phenylisoxazol-4-yl)-benzo[e]indol-3-yl] benzoic acid], the IC50 stood at 40 µM.

`CCC(C)(C)C1CCc2c(cc(-c3cc4ccccc4o3)n2-c2cccc(C(=O)O)c2)C1` (stereo not drawn) [3-[2-benzofuran-2-yl-5-(1,1-dimethylpropyl) 4,5,6,7-tetrahydroindol-1-yl] benzoic acid]: the IC50 was found to be 3.7 µM.

As for `c1cc(-c2nn[nH]n2)cc(-n2c(-c3ccsc3)cc3c4ccccc4ccc32)c1` [3-[3-(2H-tetrazol-5-yl)-phenyl]-2-thiophen-3-yl-3H benzo[e]indole], the IC50 came out at 31 µM.

For the compound `O=C(O)c1cccc(-n2c(-c3ccc(-c4ccc(Cl)cc4Cl)o3)cc3c4ccccc4ccc32)c1` [3-{2-[5-(2,4-dichlorophenyl)-furan-2-yl]-benzo[e]indol-3-yl} benzoic acid], the IC50 amounted to 33 µM.

With `O=C(O)c1ccc(-c2cc3c4ccccc4ccc3n2-c2ccoc2)cc1` [4-(3-furan-3-yl-3H-benzo[e]indol-2-yl) benzoic acid], the IC50 is > 100 µM.

With `O=C(O)c1ccc(-c2cc3c(n2-c2cccnc2)CCc2ccccc2-3)cc1` [4-(3-pyridin-3-yl-4,5-dihydro-3H-benzo[e]indol-2-yl) benzoic acid], the IC50 was > 100 µM.

Consider `O=C(O)CCCc1ccc(-n2c(-c3ccc(-c4ccc(Cl)cc4Cl)o3)cc3c4ccccc4ccc32)cc1` [4-(4-{2-[5-(2 4-dichlorophenyl)-furan-2-yl]-benzo[e]indol-3-yl}-phenyl) butyric acid], for which the half-maximal inhibitory concentration (IC50) came to 17 µM.

With `O=C(O)CCCc1ccc(-n2c(-c3ccc4c(c3)OCO4)cc3c2CCc2ccccc2-3)cc1` [4-[4-(2-benzo[1,3]dioxol-5-yl-dihydrobenzo[e]indol-3-yl)-phenyl] butyric acid], the IC50 was found to be 8.8 µM.

Regarding `O=C(O)CCCc1ccc(-n2c(-c3cc(-c4ccccc4)no3)cc3c4ccccc4ccc32)cc1` [4-{4-[2-(3-phenylisoxazol-5-yl)-benzo[e]indol-3-yl]-phenyl} butyric acid], the IC50 amounted to 4.5 µM.

For `Cc1onc(-c2ccccc2)c1-c1cc2c(n1-c1ccc(CCCC(=O)O)cc1)CCc1ccccc1-2` [4-{4-[2-(5-methyl-3-phenylisoxazol-4-yl)-4,5-dihydrobenzo[e]indol-3-yl]-phenyl} butyric acid], the IC50 came out at 1.5 µM.

Turning to `Cc1onc(-c2ccccc2)c1-c1cc2c3ccccc3ccc2n1-c1ccc(CCCC(=O)O)cc1` [4-{4-[2-(5-methyl-3-phenylisoxazol-4-yl)-benzo[e]indol-3-yl]-phenyl} butyric acid], the IC50 was 1 µM.
